Measured values reported in ChEMBL document CHEMBL5634089, “Design, synthesis and evaluation of 2-pyrimidinylindole derivatives as anti-obesity agents by regulating lipid metabolism” (Eur J Med Chem, 2023).
Activity calls are given as the source filed them. The calls are words filed in the database; no cut-off is given here.

Key:
[1] = tested on: Mus musculus; assay: Anti-obesity activity in high-fat and high-cholesterol diet induced C57BL/6J mouse assessed as reduction in triglyceride level at 20 mg/kg, ip administered every day for 6 weeks; assay type: functional, organism-based
[2] = tested on: 3T3-L1; assay: Anti-adipogenic activity in mouse 3T3-L1 cells assessed as lipid-lowering activity during the adipogenesis stage at 0.2 to 1.0 uM measured after 0 to 3 days; assay type: functional, cell-based; settings: dose 0.2-1 µM, time 0-3 day
[3] = tested on: 3T3-L1; assay: Anti-adipogenic activity against mouse 3T3-L1 cells assessed as decrease in ATP citrate lyase mRNA expression at 0.2 to 0.8 uM incubated for 3 days by RT-PCR analysis; assay type: functional, cell-based; settings: dose 0.2-0.8 µM, time 3.0 day
[4] = tested on: Mus musculus; assay: Anti-obesity activity in high-fat and high-cholesterol diet induced C57BL/6J mouse assessed as attenuation of fibrosis in liver at 20 mg/kg, ip administered every day for 6 weeks by Sirius red staining based microscopic analysis; assay type: functional, organism-based
[5] = tested on: 3T3-L1; assay: Anti-adipogenic activity against mouse 3T3-L1 cells assessed as change in phosphorylated AMPK alpha level; assay type: functional, cell-based
[6] = tested on: 3T3-L1; assay: Anti-adipogenic activity against mouse 3T3-L1 cells assessed as decrease in PPAR gamma mRNA expression at 0.2 to 0.8 uM incubated for 3 days by RT-PCR analysis; assay type: functional, cell-based; settings: dose 0.2-0.8 µM, time 3.0 day
[7] = tested on: Mus musculus; assay: Anti-obesity activity in high-fat and high-cholesterol diet induced C57BL/6J mouse assessed as improvement in glucose tolerance at 20 mg/kg, ip measured after 3 weeks by GTT analysis; assay type: functional, organism-based
[8] = tested on: Mus musculus; assay: Inhibition of lipid synthesis in high-fat and high-cholesterol diet induced C57BL/6J mouse assessed as downregulation of FASN protein expression at 20 mg/kg, ip administered for 6 weeks by Western blotting analysis; assay type: functional, organism-based
[9] = AUC (0 to t) in Sprague-Dawley rat at 2 mg/kg, iv administered for 24 hrs by LC-MS/MS analysis; assay type: ADME, organism-based; settings: in vivo
[10] = Cmax in Sprague-Dawley rat at 20 mg/kg, po administered for 24 hrs by LC-MS/MS analysis; assay type: ADME, organism-based; settings: in vivo
[11] = tested on: Mus musculus; assay: Inhibition of lipid synthesis in high-fat and high-cholesterol diet induced C57BL/6J mouse assessed as downregulation of ACLY protein expression at 20 mg/kg, ip administered for 6 weeks by Western blotting analysis; assay type: functional, organism-based
[12] = tested on: 3T3-L1; assay: Anti-adipogenic activity against mouse 3T3-L1 cells assessed as increase in Acsl1 mRNA expression at 0.2 to 0.8 uM incubated for 3 days by RT-PCR analysis; assay type: functional, cell-based; settings: dose 0.2-0.8 µM, time 3.0 day
[13] = tested on: Mus musculus; assay: Inhibition of lipid synthesis in high-fat and high-cholesterol diet induced C57BL/6J mouse assessed as downregulation of ACC protein expression at 20 mg/kg, ip administered for 6 weeks by Western blotting analysis; assay type: functional, organism-based
[14] = MRT (0 to t) in Sprague-Dawley rat at 20 mg/kg, po administered for 24 hrs by LC-MS/MS analysis; assay type: ADME, organism-based; settings: in vivo
[15] = tested on: Mus musculus; assay: Anti-obesity activity in high-fat and high-cholesterol diet induced C57BL/6J mouse assessed as reduction in liver damage by measuring reduction in alkaline phosphatase level in serum at 20 mg/kg, ip administered every day for 6 weeks; assay type: functional, organism-based
[16] = tested on: 3T3-L1; assay: Anti-adipogenic activity against mouse 3T3-L1 cells assessed as decrease in Acc mRNA expression at 0.2 to 0.8 uM incubated for 3 days by RT-PCR analysis; assay type: functional, cell-based; settings: dose 0.2-0.8 µM, time 3.0 day

**Q.** Which results are given for `CC(=O)c1c(-c2nccc(NCCN3CCCC3)n2)[nH]c2ccccc12`?
**A.** Activity [1]: Active; Activity [2]: Active; Activity [3]: Active; Activity [4]: Active; Activity [5]: inactive; Activity [6]: Active; Activity [7]: Active; inhibition [8]: Active; AUC(0-t) at 24 h [9]: 219 ng·h/mL; Cmax [10]: 168 ng/mL; inhibition [11]: Active; Activity [12]: Active; inhibition [13]: Active; MRT last at 24 h [14]: 5.2 h; Activity [15]: Active; Activity [16]: Active
